Assay [1] has as its system nuclear receptor (NR) interaction with its coregulator proteins. The assay is described as follows: Inhibition of nuclear receptor-coregulator interaction in cancer cells. The class given is cell-based. The procedure:
The present oligo-benzamide analogs are extremely potent and effective on various cancer cells including breast cancer, ovarian cancer, and pancreatic cancer. These compounds have a unique mode of action compared to existing therapeutic treatments to these diseases. The compounds are very potent with IC50 values of 10-50 nM for growth inhibition. TK41 is a tris-benzamide analog and it inhibits nuclear receptor (NR) interaction with its coregulator proteins in cancer cells with high potency (IC50 is approximately 100 nM; FIGS. 1-4).

Assay [2] has as its system triple-negative breast cancer cells (TNBC). Description: Growth inhibition of TNBC cells. The class given is cell-based. An excerpt:
FIGS. 10A & 10B show effects of TK208 against cancer cells.
TNBC is difficult to be treated and currently there are no good drugs available in the market.
In addition, another tris-benzmaide compound TK208 was synthesized and tested against breast cancer and ovarian cancer cell lines (FIGS. 10-15). […] These compounds (e.g., TK41, TK208, TK308 (FIG. 21), TK309 (FIG. 22), TK314, TK315) are extremely potent compounds that inhibit tumor growth and kill breast and ovarian cancer cells and as such, they are superb therapeutic candidates for such diseases.

Assay [3] concerns normal human mammary epithelial cells (HMEC). Description: WST, MTT or CellTiter-Glo assays in HMEC. Format: cell-based. The note with it: at >1 μM. The text has this: (§1) FIGS. 34A-C: Dose response curve of ERX-41 in multiple TNBC. cell lines using WST-1 assays (FIG. 34A) and CellTiter-Glo assays (FIG. 34B). […] Quantification of the number of dead cells over time seen with live cell imaging in MDAMB-231 and HMEC cells is shown.
(§2) To evaluate the generalizability of the inventors' findings, they evaluated ERX-41 in a large number of TNBC and ERa-positive cell lines.
(Cellular ATP, detected with luciferase, serves as a proxy for viable cell number.)

In assay [4] the test system is TNBC cells. Description: Live cell imaging with SYTOX Green, TNBC. The class given is cell-based. Particulars: within 30 hours of treatment.
From the text: as §1, §2

Assay [5] concerns HMEC cells. Description: Live cell imaging with SYTOX Green, HMEC. The class given is cell-based, human.
From the text: as §1, §2

Assay [6] relates to SUM-159 cells with LIPA KO. The assay is described as follows: Live cell imaging of SUM-159 with LIPA KO. Format: cell-based. Particulars: 1 μM. The text has this: FIGS. 37A-J: The molecular target of ERX-41 in TNBC is LIPA. […] (FIG. 37B) Knockout clones of LIPA, ACACA, TMEM208, SOAT1 and ARID1A were generated in MDA-MB-231 cells and evaluated for response to ERX-41 using doseresponse curves using CellTiter-Glo assays in vitro. (FIGS. 37C-D) Effect of knockout of LIPA in SUM-159 (FIG. 37C) and MDA-MB436 (FIG. 37D) on dose response curve to ERX-41 using CellTiter-Glo assays in vitro. (FIGS. 37E-F) Dose response curves of SUM-159 parental cells and clones with LIPA KO to thapsigargin (FIG. 37E) and paclitaxel (FIG. 37F). (FIGS. 37G-H) Live cell imaging studies with SYTOX Green to examine ability of 1 μM ERX-41 to induce cell death in parental SUM-159 and SUM-159 clones with LIPA KO, with quantitation (FIG. 37G) and time-lapsed photomicrographs at 0 h and 30 h ((FIG. 37H). (FIGS. 37I-J) SCID mice were implanted with either parental SUM-159 or SUM-159 clones with LIPA KO (n=6, each group) and tumors were allowed to establish (150 mm^3). Following daily intraperitoneal administration of 10 mg/kg ERX-41, tumor sizes were measured and graphed (FIG. 37I), along with mice body weights (FIG. 37J). *p<0.05. **p<0.01; ***p<0.001.
The molecular target of ERX-41 in TNBC is LIPA. […] Knockout clones of LIPA, SLC5A3, SMAP2, TMEM208, SOAT1 and ARID1A were generated in multiple TNBC cells and evaluated for response to ERX-41.

For `CC(C)COc1cc(C(=O)Nc2ccc(C(=O)N[C@H]3CC[C@H](C)CC3)cc2OCC(C)C)ccc1NC(=O)c1ccc([N+](=O)[O-])c(OCCO)c1` [TK41], the figures for the IC50 in assay [1] and in assay [2] were around 0.1 µM and below 0.1 µM, respectively. Also, in assay [3], the “effect against HMEC” value was “did not have significant effect”. Besides, the “cell death, share of cells” value in assay [4] is reported as above 90%. Moreover, the “cell death in HMEC” value in assay [5] was “did not significantly induce cell death”. The “cell death after KO of LIPA” value in assay [6] is given as “dramatic decrease in cell death”.

Values taken from US12275685B2, “Oligo-benzamide analogs and their use in cancer treatment” (Board of Regents, The University of Texas System, priority 2018, dated 2025).
